# US20210347785A1, “PREPARATION AND APPLICATION OF AROMATIC COMPOUND HAVING IMMUNOREGULATORY FUNCTION” (SHANGHAI ENNOVABIO PHARMACEUTICALS CO., LTD., priority 2018, published 2021)
# Molecular target: T1, PD-1/PD-L1 (Homo sapiens, UniProt Q9NZQ7)
# T1 construct: purchased Cisbio 63ADK000CPDEC
# Test: PD-1/PD-L1 homogeneous time-resolved fluorescence (HTRF) binding assay
# Settings: 665 nm/620 nm ratio
# Description: Test Example 1: Detect the Inhibitory Effect of the Compound to the Binding of PD-1/PD-L1 Protein
# The PD-1/PD-L1 homogeneous time-resolved fluorescence method is used to detect the binding ability of the compound with PD-L1.
# PD-1/PD-L1 binding assay kit (Cisbio, Cat #63ADK000CPDEC) was chosen, which contains two proteins Tag 1-PD-L1 and Tag 2-PD-1, and two antibodies Anti-Tag1-Eu^3+ and Anti-Tag2-XL 665. The principle of detection was: Anti-tag1-Eu^3+ was used as the donor of HTRF, and Anti-Tag2-XL 665 was used as the acceptor of HTRF. When Tag 1-PD-L1 interacts with Tag 2-PD-1, the added HTRF donor and the acceptor are close to each other. After the donor has received the excitation energy, part of the energy was transferred to the acceptor, thus generating 665 nm emission light. […] The inhibitory effect of the compound can be determined by comparing the ratio of 665 nm/620 nm. Tag 1-PD-L1 was diluted with Diluent buffer (cat #62DLBDDF) to a working concentration of 10 nM, Tag 2-PD-1 was diluted with Diluent buffer to a working concentration of 500 nM, Anti-Tag1-Eu^3+ was diluted with detection buffer (cat #62DB1FDG) at a ratio of 1:100, Anti-Tag2-XL 665 was diluted with detection buffer at a ratio of 1:20, and the compound to be detected was diluted with diluent buffer to a final concentration of 2×. Compound solution (2 μL) was added to each well of a 384-well plate, then Tag 1-PD-L1 (4 μL) and Tag 2-PD-1 (4 μL) were added successively. The mixture was incubated at room temperature for 15 minutes. Then Anti-Tag1-Eu^3+ (5 μL) and Anti-Tag2-XL 665 (5 μL) were added, and the mixture was incubated overnight at room temperature. BioTek Synergy™ Neo2 multifunctional microplate reader was used to detect so as to provide the 665 nm/620 nm ratio. PrismGraphd 5.02 was used to fit the IC50 curve.
# T1 sequence (Q9NZQ7 19-238 limits assumed): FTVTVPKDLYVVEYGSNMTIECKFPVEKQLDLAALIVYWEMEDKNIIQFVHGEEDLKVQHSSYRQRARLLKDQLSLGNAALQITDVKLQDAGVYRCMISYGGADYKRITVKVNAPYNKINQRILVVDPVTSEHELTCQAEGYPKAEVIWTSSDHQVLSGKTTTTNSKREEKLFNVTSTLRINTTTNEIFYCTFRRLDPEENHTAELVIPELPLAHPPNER
row,Structure (SMILES),IC50 [nM]
1,COc1nc(-c2cccc(-c3cccc(Nc4nccc5sc(CN6CCC[C@@H]6C(=O)O)nc45)c3Cl)c2Cl)cc(C)c1CNC[C@@H]1CCC(=O)N1 [Compound 47],< 100
2,COc1nc(-c2cccc(-c3cccc(Nc4nccc5sc(CN6CCC(C)(C(=O)O)CC6)nc45)c3Cl)c2Cl)cc(C)c1CNC[C@@H]1CCC(=O)N1 [Compound 49],< 100
3,COc1nc(-c2cccc(-c3cccc(Nc4nccc5sc(CN[C@H]6CC[C@@H](C(=O)O)CC6)nc45)c3Cl)c2Cl)cc(C)c1CNC[C@@H]1CCC(=O)N1 [Compound 51],< 100
4,COc1nc(-c2cccc(-c3cccc(Nc4nccc5sc(CN6CCC(CC(=O)O)CC6)nc45)c3Cl)c2Cl)cc(C)c1CNC[C@@H]1CCC(=O)N1 [Compound 53],< 100
5,COc1cc(-c2cccc(-c3cccc(Nc4nccc5sc(CN6CCC(C(=O)O)CC6)nc45)c3Cl)c2Cl)cc(C)c1CNC[C@@H]1CCC(=O)N1 [Compound 55],< 100

# Second part, the compound after the results:
row,IC50 [nM],Structure (SMILES)
1,< 100,COc1nc(-c2cccc(-c3cccc(Nc4nccc5sc(CN6C[C@@H](O)C[C@H]6C(=O)O)nc45)c3Cl)c2Cl)cc(C)c1CNC[C@@H]1CCC(=O)N1 [Compound 48]
2,< 100,COc1nc(-c2cccc(-c3cccc(Nc4nccc5sc(CN[C@H]6CC[C@H](C(=O)O)CC6)nc45)c3Cl)c2Cl)cc(C)c1CNC[C@@H]1CCC(=O)N1 [Compound 50]
3,< 100,COc1nc(-c2cccc(-c3cccc(Nc4nccc5sc(CN6CCC(CC(=O)O)C6)nc45)c3Cl)c2Cl)cc(C)c1CNC[C@@H]1CCC(=O)N1 (stereo partly drawn) [Compound 52]
4,< 100,COc1nc(-c2cccc(-c3cccc(Nc4nccc5sc(CN6CCC(C#N)CC6)nc45)c3Cl)c2Cl)cc(C)c1CNC[C@@H]1CCC(=O)N1 [Compound 56]
